Measurements as given in ChEMBL document CHEMBL4825781, “Role of Fluorination in the Histone Deacetylase 6 (HDAC6) Selectivity of Benzohydroxamate-Based Inhibitors” (ACS Med Chem Lett, 2021).

Tests used:
Homo sapiens = species: Homo sapiens; test: Selectivity index, ratio of IC50 for recombinant human C-terminal His-tagged HDAC1 expressed in Sf9 cells to IC50 for recombinant human full length N-terminal GST-tagged HDAC6 expressed in Sf9 cells
Histone deacetylase 1 = Histone deacetylase 1 (Homo sapiens, UniProt Q13547); test: Inhibition of recombinant human C-terminal His-tagged HDAC1 expressed in Sf9 insect cells using Fluor de Lys deacetylase or Fluor de Lys Green deacetylase as substrate by fluorescent microplate reader assay
[1] = molecular target: T1, Protein deacetylase HDAC6 (Homo sapiens, UniProt Q9UBN7); test: Inhibition of recombinant human full length N-terminal GST-tagged HDAC6 expressed in Sf9 insect cells using Fluor de Lys deacetylase or Fluor de Lys Green deacetylase substrate by fluorescent microplate reader assay
T1 sequence (Q9UBN7 whole entry): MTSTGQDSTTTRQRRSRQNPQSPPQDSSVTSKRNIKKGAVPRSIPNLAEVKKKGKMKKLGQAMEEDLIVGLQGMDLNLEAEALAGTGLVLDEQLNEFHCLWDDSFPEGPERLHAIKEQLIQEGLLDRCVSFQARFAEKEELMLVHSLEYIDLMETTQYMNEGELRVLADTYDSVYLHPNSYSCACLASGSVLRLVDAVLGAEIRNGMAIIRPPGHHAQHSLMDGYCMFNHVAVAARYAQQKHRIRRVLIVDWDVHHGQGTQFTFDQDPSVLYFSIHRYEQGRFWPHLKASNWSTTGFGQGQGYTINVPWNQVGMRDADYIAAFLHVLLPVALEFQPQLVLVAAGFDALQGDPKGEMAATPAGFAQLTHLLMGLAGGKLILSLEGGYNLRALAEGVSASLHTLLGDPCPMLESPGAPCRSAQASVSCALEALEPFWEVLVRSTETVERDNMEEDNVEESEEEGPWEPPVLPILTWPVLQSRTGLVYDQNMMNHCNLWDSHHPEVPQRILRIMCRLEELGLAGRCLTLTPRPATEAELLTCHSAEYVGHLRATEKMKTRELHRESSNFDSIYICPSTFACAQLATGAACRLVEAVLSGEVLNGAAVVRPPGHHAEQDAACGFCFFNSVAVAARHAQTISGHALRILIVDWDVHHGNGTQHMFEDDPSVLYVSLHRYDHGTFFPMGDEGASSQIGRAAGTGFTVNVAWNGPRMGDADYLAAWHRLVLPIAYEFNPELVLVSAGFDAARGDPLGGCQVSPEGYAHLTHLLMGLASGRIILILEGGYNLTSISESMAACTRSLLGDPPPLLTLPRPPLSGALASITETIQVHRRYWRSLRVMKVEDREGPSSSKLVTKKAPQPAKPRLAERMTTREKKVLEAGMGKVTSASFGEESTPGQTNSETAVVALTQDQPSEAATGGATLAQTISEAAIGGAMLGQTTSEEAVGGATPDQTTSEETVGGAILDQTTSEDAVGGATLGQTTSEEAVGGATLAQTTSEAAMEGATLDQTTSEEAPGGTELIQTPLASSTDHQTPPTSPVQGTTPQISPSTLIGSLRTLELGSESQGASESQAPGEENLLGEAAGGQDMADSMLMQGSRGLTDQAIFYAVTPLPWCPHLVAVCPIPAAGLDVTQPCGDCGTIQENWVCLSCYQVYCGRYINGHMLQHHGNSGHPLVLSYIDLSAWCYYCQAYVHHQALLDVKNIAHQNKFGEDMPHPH

Histone deacetylase 11 = molecular target: T2, Histone deacetylase 11 (Homo sapiens, UniProt Q96DB2); test: Inhibition of recombinant human N-terminal His-tagged HDAC11 expressed in baculovirus expression system using Fluor de Lys deacetylase or Fluor de Lys Green deacetylase substrate by fluorescent microplate reader assay
T2 sequence (Q96DB2 whole entry): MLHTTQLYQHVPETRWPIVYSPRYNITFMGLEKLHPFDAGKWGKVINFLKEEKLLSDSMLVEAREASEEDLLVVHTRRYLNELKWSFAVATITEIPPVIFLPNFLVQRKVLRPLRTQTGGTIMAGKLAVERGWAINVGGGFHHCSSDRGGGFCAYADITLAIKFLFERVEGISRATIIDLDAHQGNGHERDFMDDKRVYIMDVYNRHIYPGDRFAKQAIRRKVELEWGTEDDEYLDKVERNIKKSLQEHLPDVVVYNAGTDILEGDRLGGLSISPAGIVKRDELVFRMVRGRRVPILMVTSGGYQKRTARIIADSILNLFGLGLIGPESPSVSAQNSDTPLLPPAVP

Histone deacetylase 3 = Histone deacetylase 3 (Homo sapiens, UniProt O15379); test: Inhibition of recombinant human C-terminal His-tagged HDAC3 (1 to 428 residues) expressed in Sf9 insect cells using Fluor de Lys deacetylase or Fluor de Lys Green deacetylase substrate by fluorescent microplate reader assay
Histone deacetylase 2 = Histone deacetylase 2 (Homo sapiens, UniProt Q92769); test: Inhibition of recombinant human C-terminal His-tagged HDAC2 (1 to 488 residues) expressed in Sf9 insect cells using Fluor de Lys deacetylase or Fluor de Lys Green deacetylase substrate by fluorescent microplate reader assay
[2] = molecular target: T3, Polyamine deacetylase HDAC10 (Homo sapiens, UniProt Q969S8); test: Inhibition of recombinant human N-terminal FLAG-tagged HDAC10 (1 to 613 residues) expressed in Sf9 insect cells using Fluor de Lys deacetylase or Fluor de Lys Green deacetylase substrate by fluorescent microplate reader assay
T3 sequence (Q969S8 whole entry): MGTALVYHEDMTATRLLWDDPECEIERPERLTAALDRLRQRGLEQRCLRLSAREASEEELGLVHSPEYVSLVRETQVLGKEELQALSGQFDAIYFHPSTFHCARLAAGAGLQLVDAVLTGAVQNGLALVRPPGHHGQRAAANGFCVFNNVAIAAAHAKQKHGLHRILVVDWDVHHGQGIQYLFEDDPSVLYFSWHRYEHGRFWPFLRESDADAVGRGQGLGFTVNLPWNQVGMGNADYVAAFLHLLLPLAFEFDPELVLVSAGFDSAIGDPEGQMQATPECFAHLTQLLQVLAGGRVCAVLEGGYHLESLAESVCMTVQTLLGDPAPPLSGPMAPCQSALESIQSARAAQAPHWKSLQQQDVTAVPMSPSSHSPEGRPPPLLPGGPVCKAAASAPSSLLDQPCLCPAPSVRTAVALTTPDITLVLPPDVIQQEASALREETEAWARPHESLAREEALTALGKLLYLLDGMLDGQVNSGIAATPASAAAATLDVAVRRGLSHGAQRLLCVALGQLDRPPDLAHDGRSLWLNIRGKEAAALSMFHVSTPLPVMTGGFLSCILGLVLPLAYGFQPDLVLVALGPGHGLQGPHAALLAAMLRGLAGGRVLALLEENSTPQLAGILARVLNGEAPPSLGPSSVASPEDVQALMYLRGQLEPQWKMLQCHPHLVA

Histone deacetylase 5 = Histone deacetylase 5 (Homo sapiens, UniProt Q9UQL6); test: Inhibition of recombinant human ful length N-terminal GST-tagged HDAC5 expressed in baculovirus expression system using Nepsilon-Trifluoroacetyl L-lysine as substrate by fluorescent microplate reader assay
Histone deacetylase 4 = Histone deacetylase 4 (Homo sapiens, UniProt P56524); test: Inhibition of recombinant human N-terminal GST-tagged and C-terminal His-tagged HDAC4 (627 to 1084 residues) expressed in Sf9 insect cells using Nepsilon-Trifluoroacetyl L-lysine as substrate by fluorescent microplate reader assay
Histone deacetylase 9 = Histone deacetylase 9 (Homo sapiens, UniProt Q9UKV0); test: Inhibition of recombinant human C-terminal His-tagged HDAC9 (604 to 1066 residues) expressed in baculovirus expression system using Nepsilon-Trifluoroacetyl L-lysine substrate by fluorescent microplate reader assay
Histone deacetylase 8 = molecular target: T4, Histone deacetylase 8 (Homo sapiens, UniProt Q9BY41); test: Inhibition of recombinant human full length C-terminal His-tagged HDAC8 expressed in baculovirus expression system using Fluor de Lys deacetylase or Fluor de Lys Green deacetylase substrate by fluorescent microplate reader assay
T4 sequence (Q9BY41 whole entry): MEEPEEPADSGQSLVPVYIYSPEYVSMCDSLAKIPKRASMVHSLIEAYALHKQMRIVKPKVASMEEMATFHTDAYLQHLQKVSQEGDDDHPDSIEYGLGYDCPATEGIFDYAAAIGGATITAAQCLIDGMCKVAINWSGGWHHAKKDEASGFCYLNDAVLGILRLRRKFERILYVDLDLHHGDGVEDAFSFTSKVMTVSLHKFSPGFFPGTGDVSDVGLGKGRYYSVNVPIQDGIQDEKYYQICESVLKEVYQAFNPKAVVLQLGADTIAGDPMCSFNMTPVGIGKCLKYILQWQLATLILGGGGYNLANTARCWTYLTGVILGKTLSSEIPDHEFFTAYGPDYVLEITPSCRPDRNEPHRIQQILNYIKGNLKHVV

Histone deacetylase 7 = molecular target: T5, Histone deacetylase 7 (Homo sapiens, UniProt Q8WUI4); test: Inhibition of recombinant human N-terminal GST-tagged HDAC7 (518 to end residues) expressed in baculovirus expression system using Nepsilon-Trifluoroacetyl L-lysine as substrate by fluorescent microplate reader assay
T5 sequence (Q8WUI4 whole entry): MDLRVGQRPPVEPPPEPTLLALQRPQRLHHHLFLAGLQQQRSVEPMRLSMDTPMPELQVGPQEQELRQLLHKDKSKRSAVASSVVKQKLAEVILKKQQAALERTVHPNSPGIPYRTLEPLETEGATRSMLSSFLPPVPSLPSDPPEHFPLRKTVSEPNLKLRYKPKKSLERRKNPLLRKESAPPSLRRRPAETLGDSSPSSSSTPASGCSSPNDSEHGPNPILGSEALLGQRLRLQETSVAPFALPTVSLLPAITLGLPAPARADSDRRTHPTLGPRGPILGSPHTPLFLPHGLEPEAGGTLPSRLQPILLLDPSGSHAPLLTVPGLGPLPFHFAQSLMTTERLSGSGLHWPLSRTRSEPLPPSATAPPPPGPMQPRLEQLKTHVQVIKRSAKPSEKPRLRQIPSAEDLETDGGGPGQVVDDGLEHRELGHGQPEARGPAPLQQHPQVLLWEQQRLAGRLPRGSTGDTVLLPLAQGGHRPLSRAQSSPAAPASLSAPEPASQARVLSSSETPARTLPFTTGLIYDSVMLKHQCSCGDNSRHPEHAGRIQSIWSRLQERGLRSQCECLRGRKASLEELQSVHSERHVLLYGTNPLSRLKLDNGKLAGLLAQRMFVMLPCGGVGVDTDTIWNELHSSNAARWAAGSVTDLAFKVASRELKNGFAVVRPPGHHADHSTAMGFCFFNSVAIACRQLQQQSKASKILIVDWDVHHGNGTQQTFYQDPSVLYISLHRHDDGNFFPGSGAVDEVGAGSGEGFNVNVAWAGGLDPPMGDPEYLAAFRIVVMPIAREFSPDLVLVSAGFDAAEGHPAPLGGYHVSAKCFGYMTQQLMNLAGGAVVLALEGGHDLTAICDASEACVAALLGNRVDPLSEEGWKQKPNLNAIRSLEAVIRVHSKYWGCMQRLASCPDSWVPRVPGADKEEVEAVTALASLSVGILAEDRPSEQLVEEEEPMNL

Chain of Histone deacetylase 1 (Q13547 whole entry): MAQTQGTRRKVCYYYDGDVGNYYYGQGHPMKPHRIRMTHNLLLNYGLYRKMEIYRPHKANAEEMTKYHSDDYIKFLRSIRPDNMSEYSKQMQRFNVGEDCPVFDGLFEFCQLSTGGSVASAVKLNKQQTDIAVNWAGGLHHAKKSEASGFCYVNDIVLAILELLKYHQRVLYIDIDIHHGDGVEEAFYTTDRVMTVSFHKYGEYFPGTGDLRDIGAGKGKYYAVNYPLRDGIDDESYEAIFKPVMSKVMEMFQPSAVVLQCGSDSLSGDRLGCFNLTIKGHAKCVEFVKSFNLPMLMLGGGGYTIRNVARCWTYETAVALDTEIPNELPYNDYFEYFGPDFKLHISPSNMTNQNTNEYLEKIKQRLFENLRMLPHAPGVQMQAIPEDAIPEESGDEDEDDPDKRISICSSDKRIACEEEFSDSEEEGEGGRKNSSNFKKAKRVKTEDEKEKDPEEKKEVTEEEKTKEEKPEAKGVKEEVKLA
Chain of Histone deacetylase 2 (Q92769 whole entry, the tested form may be a part): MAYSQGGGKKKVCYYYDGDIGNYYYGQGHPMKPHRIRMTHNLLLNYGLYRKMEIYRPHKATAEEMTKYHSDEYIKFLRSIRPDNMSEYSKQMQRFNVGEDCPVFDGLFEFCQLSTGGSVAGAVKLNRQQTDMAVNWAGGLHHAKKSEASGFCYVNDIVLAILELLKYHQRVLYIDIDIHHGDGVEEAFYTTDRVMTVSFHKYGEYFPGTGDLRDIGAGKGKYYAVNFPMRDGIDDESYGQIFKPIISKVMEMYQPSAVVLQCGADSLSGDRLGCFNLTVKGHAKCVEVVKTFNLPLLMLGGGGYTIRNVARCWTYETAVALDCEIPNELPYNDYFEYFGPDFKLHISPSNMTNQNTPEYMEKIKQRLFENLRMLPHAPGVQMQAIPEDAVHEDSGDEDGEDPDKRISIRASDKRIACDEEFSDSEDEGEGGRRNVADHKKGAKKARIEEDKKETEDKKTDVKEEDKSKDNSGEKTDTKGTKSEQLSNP
Chain of Histone deacetylase 3 (O15379 whole entry, the tested form may be a part): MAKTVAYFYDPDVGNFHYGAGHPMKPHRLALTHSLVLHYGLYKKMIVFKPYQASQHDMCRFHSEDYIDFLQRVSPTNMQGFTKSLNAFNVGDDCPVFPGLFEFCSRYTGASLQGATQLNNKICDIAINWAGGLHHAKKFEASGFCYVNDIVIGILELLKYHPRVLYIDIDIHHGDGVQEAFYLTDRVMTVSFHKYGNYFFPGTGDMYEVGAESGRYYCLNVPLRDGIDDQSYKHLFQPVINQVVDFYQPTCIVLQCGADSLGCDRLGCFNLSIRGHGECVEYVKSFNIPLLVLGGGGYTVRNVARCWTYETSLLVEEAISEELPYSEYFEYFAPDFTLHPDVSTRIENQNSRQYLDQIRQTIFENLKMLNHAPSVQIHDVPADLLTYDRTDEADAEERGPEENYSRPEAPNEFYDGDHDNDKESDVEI
Chain of Histone deacetylase 5 (Q9UQL6 whole entry, the tested form may be a part): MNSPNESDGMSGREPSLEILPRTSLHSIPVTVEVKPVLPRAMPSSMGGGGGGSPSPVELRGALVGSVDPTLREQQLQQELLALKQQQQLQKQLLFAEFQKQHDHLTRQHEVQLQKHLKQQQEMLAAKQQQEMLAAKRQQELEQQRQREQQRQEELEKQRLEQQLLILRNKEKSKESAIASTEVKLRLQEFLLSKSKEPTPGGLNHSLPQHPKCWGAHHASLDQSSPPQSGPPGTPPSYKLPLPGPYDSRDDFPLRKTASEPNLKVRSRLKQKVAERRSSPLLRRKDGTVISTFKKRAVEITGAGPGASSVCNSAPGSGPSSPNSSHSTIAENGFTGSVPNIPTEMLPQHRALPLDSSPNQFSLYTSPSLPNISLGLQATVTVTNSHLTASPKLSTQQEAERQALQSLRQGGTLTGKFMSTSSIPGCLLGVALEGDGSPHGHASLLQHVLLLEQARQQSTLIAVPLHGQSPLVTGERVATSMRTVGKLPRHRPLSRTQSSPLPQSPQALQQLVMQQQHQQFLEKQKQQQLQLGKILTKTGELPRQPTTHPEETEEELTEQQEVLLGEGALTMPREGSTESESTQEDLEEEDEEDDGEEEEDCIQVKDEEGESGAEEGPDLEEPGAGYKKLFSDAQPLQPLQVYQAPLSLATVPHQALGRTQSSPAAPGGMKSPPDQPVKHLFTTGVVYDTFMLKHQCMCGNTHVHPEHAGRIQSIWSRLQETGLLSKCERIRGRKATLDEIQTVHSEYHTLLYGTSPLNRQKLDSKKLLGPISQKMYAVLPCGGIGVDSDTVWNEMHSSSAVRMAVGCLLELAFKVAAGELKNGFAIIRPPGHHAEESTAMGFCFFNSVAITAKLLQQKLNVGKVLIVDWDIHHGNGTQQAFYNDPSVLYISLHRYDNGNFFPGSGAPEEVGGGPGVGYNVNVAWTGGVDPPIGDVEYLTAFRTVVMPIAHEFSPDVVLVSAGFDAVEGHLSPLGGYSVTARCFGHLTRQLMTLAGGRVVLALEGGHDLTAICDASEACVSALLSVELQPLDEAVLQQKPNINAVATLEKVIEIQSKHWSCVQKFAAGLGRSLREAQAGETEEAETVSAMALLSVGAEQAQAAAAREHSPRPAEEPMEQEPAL
Chain of Histone deacetylase 4 (P56524 whole entry, the tested form may be a part): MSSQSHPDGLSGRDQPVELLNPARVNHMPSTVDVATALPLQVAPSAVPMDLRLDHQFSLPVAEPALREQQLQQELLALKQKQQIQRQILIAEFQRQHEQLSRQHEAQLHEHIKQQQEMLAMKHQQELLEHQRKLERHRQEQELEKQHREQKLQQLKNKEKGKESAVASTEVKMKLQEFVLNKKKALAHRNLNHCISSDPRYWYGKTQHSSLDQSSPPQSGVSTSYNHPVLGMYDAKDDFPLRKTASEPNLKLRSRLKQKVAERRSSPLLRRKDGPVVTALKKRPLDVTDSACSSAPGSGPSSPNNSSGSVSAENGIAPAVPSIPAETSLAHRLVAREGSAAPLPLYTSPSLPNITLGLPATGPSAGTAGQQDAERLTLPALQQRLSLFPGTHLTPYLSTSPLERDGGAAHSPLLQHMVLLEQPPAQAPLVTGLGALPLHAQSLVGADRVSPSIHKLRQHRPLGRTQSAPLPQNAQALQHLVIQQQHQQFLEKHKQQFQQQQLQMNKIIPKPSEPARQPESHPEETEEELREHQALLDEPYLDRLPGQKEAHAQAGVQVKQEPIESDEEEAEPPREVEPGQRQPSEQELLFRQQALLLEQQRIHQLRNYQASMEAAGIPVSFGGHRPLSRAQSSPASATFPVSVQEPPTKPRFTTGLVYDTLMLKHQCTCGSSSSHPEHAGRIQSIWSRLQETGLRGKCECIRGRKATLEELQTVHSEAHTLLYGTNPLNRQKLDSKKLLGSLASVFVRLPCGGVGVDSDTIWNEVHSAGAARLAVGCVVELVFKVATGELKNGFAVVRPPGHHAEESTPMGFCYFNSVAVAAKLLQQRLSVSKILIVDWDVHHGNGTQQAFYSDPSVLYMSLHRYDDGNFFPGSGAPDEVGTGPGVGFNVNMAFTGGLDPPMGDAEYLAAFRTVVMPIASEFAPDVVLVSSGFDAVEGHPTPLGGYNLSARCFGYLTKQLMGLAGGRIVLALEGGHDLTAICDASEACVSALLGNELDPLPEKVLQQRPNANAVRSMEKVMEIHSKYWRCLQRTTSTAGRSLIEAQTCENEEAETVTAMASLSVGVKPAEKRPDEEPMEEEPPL
Chain of Histone deacetylase 9 (Q9UKV0 whole entry, the tested form may be a part): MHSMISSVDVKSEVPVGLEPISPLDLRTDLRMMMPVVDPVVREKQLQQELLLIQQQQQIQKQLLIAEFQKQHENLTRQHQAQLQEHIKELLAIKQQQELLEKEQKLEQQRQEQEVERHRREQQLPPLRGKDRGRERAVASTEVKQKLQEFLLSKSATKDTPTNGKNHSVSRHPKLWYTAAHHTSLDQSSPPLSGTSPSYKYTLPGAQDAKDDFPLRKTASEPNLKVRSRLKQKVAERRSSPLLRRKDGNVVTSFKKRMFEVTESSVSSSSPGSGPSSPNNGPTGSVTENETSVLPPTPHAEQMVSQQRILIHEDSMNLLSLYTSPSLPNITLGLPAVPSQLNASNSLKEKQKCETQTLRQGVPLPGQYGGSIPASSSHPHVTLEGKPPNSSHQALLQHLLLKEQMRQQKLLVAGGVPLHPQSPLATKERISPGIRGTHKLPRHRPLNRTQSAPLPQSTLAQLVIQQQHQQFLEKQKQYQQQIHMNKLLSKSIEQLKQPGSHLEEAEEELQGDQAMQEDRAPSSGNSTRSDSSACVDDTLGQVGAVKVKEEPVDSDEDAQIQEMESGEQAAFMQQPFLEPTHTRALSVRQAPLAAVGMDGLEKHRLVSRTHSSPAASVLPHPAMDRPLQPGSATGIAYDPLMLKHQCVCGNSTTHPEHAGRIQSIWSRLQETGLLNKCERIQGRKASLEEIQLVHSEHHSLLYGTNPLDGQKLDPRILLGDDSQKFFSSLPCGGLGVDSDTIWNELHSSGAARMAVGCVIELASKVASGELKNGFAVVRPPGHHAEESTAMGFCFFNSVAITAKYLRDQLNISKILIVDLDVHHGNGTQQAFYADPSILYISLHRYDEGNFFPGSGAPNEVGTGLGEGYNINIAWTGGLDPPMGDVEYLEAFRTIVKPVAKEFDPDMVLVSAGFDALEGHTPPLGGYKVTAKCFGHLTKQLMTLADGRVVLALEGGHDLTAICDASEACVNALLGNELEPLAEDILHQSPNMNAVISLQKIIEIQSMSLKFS

Row | IC50 (Histone deacetylase 1) [µM] | IC50 [1] [µM] | SMILES | Selectivity Index (Homo sapiens) | further results
1 | 7.39 | 0.183 | Nc1ccc(C(=O)NO)cc1F | 40 | –
2 | 3.06 | 0.064 | Nc1ncc(C(=O)NO)cn1 | 47 | –
3 | 25.4 | 1.34 | O=C(NO)c1ccccc1 [BENZOHYDROXAMATE] | 19 | –
4 | 1.91 | 0.162 | CC(=O)Nc1ccc(C(=O)NO)cc1 | 11 | –
5 | 11.4 | 0.07 | Cc1ccc(C(=O)NO)cn1 | 162 | –
6 | 0.718 | 0.01 | CCN(CC)Cc1ccc2cc(COC(=O)Nc3c(F)cc(C(=O)NO)cc3F)ccc2c1 | 70 | –
7 | 35 | 0.679 | O=C(NO)c1cccnc1 [NICOXAMAT] | 51 | –

The remaining lines, values behind:

Row | SMILES | IC50 (Histone deacetylase 1) [µM] | IC50 [1] [µM] | Selectivity Index (Homo sapiens) | further results
8 | Nc1ccc(C(=O)NO)cn1 | 9.71 | 0.24 | 40 | –
9 | O=C(NO)c1cccc(F)c1 | 29.4 | 0.453 | 64 | –
10 | O=C(NO)c1cc(F)c(Cn2nnc(-c3ncccn3)n2)c(F)c1 | 3.96 | – | – | IC50 (Histone deacetylase 11): 3.07 µM; IC50 (Histone deacetylase 3): 5.18 µM; IC50 (Histone deacetylase 2): 17.2 µM; IC50 [2]: 9.08 µM; IC50 (Histone deacetylase 5): 2.79 µM; IC50 (Histone deacetylase 4): 0.562 µM; IC50 (Histone deacetylase 9): 0.48 µM; IC50 (Histone deacetylase 8): 0.504 µM
11 | Nc1c(F)cc(C(=O)NO)cc1F | 15.8 | 0.112 | 141 | –
12 | CC(=O)Nc1ccc(C(=O)NO)cc1F | 3.21 | 0.058 | 55 | –
13 | O=C(NO)c1cc(F)c(Cn2nnnc2-c2cccs2)c(F)c1 | – | – | – | IC50 (Histone deacetylase 11): 5.66 µM; IC50 (Histone deacetylase 3): 6.04 µM; IC50 (Histone deacetylase 2): 9.23 µM; IC50 [2]: 8.74 µM
14 | Nc1ccc(C(=O)NO)cc1 | 7.14 | 0.389 | 18 | –
15 | O=C(NO)c1ccc(Cn2nnc(-c3ncccn3)n2)cc1 | 0.93 | – | 733 | IC50 (Histone deacetylase 11): 0.762 µM; IC50 (Histone deacetylase 3): 0.884 µM; IC50 (Histone deacetylase 2): 3.01 µM; IC50 [2]: 0.474 µM; IC50 (Histone deacetylase 7): 1.01 µM; IC50 (Histone deacetylase 5): 5 µM; IC50 (Histone deacetylase 4): 4.6 µM; IC50 (Histone deacetylase 9): 1.7 µM; IC50 (Histone deacetylase 8): 0.32 µM
16 | Cc1ccc(C(=O)NO)cc1F | 6.82 | 0.049 | 140 | –
17 | Cc1ccc(C(=O)NO)cc1 | 5.64 | 0.14 | 40 | –
18 | Cc1c(F)cc(C(=O)NO)cc1F | 13.8 | 0.027 | 505 | –
